Experimental data as given in US9700633B2, “Conjugates of water soluble polymer-amino acid oligopeptide-drug, preparation method and use thereof” (JENKEM TECHNOLOGY CO. LTD., TIANJIN BRANCH, priority 2013, dated 2017).
Values joined by “and” are separate entries in the source; they are usually repeats but may differ in a detail not shown here. Equal values may be shown once.

Legend:
[1] = In vitro degradation assay in 0.01 M PBS buffer solution; assay type: physicochemical
Description: In order to determine the degradation of the compounds in PBS buffer solution, the compounds DSR1˜6 were dissolved in 0.01 M PBS buffer solution, and were sampled every 30 min.

[2] = system: PC-3 human prostate cancer; experiment: Subcutaneous tumor model of PC-3 human prostate cancer; assay type: in vivo, Balb/c nude mouse; conditions: 10 mg/kg
Description: PC-3 cells were subcutaneously inoculated at the right side on the back of Balb/c nude mouse so as to establish a subcutaneous xenograft animal model of human prostate cancer. When the average tumor volume reached 160 mm^3, the experiment mice were divided to different groups, with 8 mice for each group, and the drugs were administrated by intravenous injections twice a week. The therapeutic effect was evaluated based on relative tumor proliferation ratio (T/C %).
PC-3 cell line was cultured in vitro in Ham's F12K medium with supplement of 10% fetal calf serum and L-glutamine (2 mM) at 37° C. in an atmosphere with 5% CO2 for the tumor cells culture. The tumor cells were routinely passaged twice a week. Tumor cells in exponential growth phase were collected, then were suspended in a mixture of PBS: matrigel with equal volume ratio and were placed on ice for tumor inoculation.
5×10^6 PC-3 cells were subcutaneously inoculated at the right side on the back of experiment mice. The mice were monitored at regular intervals for the tumor growth. When tumor grew to average 160 mm^3, the mice were divided to groups randomly according to the tumor volume and the mouse body weight, and were administrated.
(§1) All of the operations relevant to operation, nursing and treatment in this investigation were conducted according to guidelines approved by Association for Assessment and Accreditation of Laboratory Animal Care (AAALAC). After the incoluation, the incidence of disease and death of animals were observed every day. In the process of daily observation, the effects of tumor growth on normal behavior of animals (such as exercise, feeding, drinking, body weight change, eyes, hair) as well as any other abnormality were attentively monitored. Death and clinical symptom were recorded for animals in each group.
The calculation formula for tumor volume is as follows: tumor volume (mm^3)=0.5×(long diameter of the tumor×short diameter of the tumor^2). RTV and T/C ratios were calculated according to the tumor volumes of the treatment groups and the control group. RTV refers to relative tumor volume. T/C ratio refers to the percentage value of the relative tumor volumes of the treatment groups and the control group at a time point after the treatment, which reflects the anti-tumor effects of different treatment groups. At the end of the experiment, the pictures of the tumors were recorded according to the following two methods: 1. after euthanatized by CO2, the animals in each group were placed with tumor-bearing side up, and the pictures were taken and recorded respectively for each group; 2. after the tumor was removed, the tumor weight was weighed first. T/C (percentage value of the tumor weight between the treatment group and the control group) was calculated, and then the tumors from each group were placed in order. The pictures of the tumors were taken and recorded.
All the experiment results were expressed as average tumor volume±SE (standard error). For statistical analysis, one-way analysis of variance (one-way ANOVA) and LSD multiple comparisons method were used for the relative tumor volume data, comparing the significant difference of the relative tumor volumes between the groups. p<0.05 indicates the significant difference.

[3] = system: K562 human chronic myelogenous leukemia; experiment: Subcutaneous tumor model of K562 human chronic myelogenous leukemia; assay type: in vivo, NOD/SCID mice; conditions: 5 mg/kg; for Relative tumor volume (x ± SE) / Tumor volume (x ± SE): intravenous twice a week
Description: K562 cells were subcutaneously inoculated at the back of NOD/SCID mice right side so as to establish a subcutaneous xenograft animal model of human chronic myelogenous leukemia. When the average tumor volume reached 130 mm^3, the experiment mice were divided to different groups, with 8 mice for each group, and the drugs were administrated by intravenous injections twice a week. The effect was evaluated based on relative tumor proliferation ratio (T/C %).
Tumor cells were routinely passaged twice a week. Tumor cells in exponential growth phase were collected, then suspended in a mixture of PBS: matrigel with equal volume ratio and placed on ice for tumor inoculation.
5×10^6 K562 cells were subcutaneously inoculated at the back of experiment mice right side. The mice were monitored at regular intervals for the tumor growth. When tumor grew to average 130 mm^3, the mice were divided to groups randomly according to tumor volume and mouse body weight, and were administrated.
as §1
The calculation formula for tumor volume is as follows: tumor volume (mm^3)=0.5×(long diameter of the tumor×short diameter of the tumor^2). RTV and T/C ratios were calculated according to the tumor volumes of the treatment groups and the control group. RTV refers to relative tumor volume. T/C ratio refers to the percentage value of the average tumor volumes between the treatment groups and the control group at a time point after the treatment, which reflects the anti-tumor effects of different treatment groups.
All the experiment results were expressed as the average tumor volume±SE (standard error). For statistical analysis, since the variances of relative tumor volume data were different, one-way analysis of variance (one-way ANOVA) and Dunnett T3 method for multiple comparisons were used to compare significant difference of relative tumor volumes between the groups. p<0.05 indicated the significant difference.

[4] = intravenous twice a week, 22nd day after grouping

Substance | degradation ([1]; at 240 min) [%] | T/C (relative tumor proliferation ratio) ([2]; 22nd day after grouping, compared with the solvent control group) [%] | T/C (relative tumor proliferation ratio) ([2]; 25th day after grouping, compared with the dasatinib group) [%] | Relative tumor volume (x ± SE) [2, 4] | Tumor volume (x ± SE) [2, 4] | Relative tumor volume (x ± SE) ([2]; intravenous twice a week, 25th day after grouping) | T/C (relative tumor proliferation ratio) ([3]; 14th day after the grouping, compared with the solvent control group) [%] | T/C (relative tumor proliferation ratio) ([3]; 21st day after grouping, compared with the dasatinib group) [%] | Relative tumor volume (x ± SE) ([3]; 14th day after the grouping) | Tumor volume (x ± SE) ([3]; 14th day after the grouping) | Relative tumor volume (x ± SE) ([3]; 21st day after grouping) | Tumor volume (x ± SE) ([3]; 21st day after grouping) | degradation ([1]; at 150 min) [%]
conjugate of methoxy PEG glutamic acid dipeptide valine (20K)-dasatinib [DSR-4] | 20 | 47 | 61 | 745.9 ± 54.4 | 1187 mm^3 and 1187 ± 67 mm^3 | 751.9 ± 78.9 | 1.6 | 45 | 29.1 ± 4.8 | 39.2 mm^3 and 39.2 ± 6 mm^3 | 130 ± 28 | 176 mm^3 and 176 ± 59 mm^3 | –
conjugate of methoxy PEG dipeptide of glutamic acid alanine (20K)-dasatinib [DSR-3] | – | – | – | – | – | – | – | – | – | – | – | – | 50
